pKd, pKi: −log10 of the molar value.

One test concerns TRKB:PLC-γ1 interaction. Nature of the test: TRKB:PLC-γ1 interaction ELISA in cortical cells. Format: cell-based, rat. The conditions noted are these: rat cortical cells. The protocol: The TRKB:pY (phosphorylated TRKB), TRKB:PLC-γ1, PLC-γ1:pTRKB.Y816 interactions and were determined by ELISA, based on the general method described in literature ([Antila et al., 2014]; [Fred et al., 2019]), with minor adjustments. Briefly, white 96-well plates (OptiPlate 96F-HB, Perkin Elmer) were coated with capturing anti-TRKB or PLC-γ1 antibody (1:1000) in carbonate buffer (pH = 9.8) overnight (ON) at 4°C. Following a blocking step with 2%BSA in TBS-T (2 h, RT), samples were incubated ON at 4°C. The incubation with antibody against pTRKB.Y816, PLC-γ1 or pY (1:2000, ON, 4°C) was followed by HRP-conjugated anti-Rb IgG (1:5000, 2h, RT) or HRP-conjugated streptavidin (1:10000, 2h, RT). Finally, the chemiluminescent signal generated by the reaction with ECL was analyzed in a plate reader (Varioskan Flash, Thermo Scientific).
Background: ELISA stands for enzyme-linked immunosorbent assay.

A further test has as its target T1, TRKB.Y433F (Mus musculus, UniProt P15209, Y433F).
T1 construct: wild-type GFP-tagged full length TRKB or the GFP-tagged Y433F TRKB mutant; host or cells: HEK293T
Put plainly: Cell-free ligand binding assay, TRKB.Y433F mutant. The conditions noted are these: tritiated imipramine, biotinylated R,R-HNK. The protocol: (§1) The cell-free assays (binding assays) were performed in white 96-well plates, based on the protocol used for western-blotting or ELISA ([Baeza-Raja et al., 2016]; [Das et al., 2015]). The plates were precoated with anti-GFP, anti-FLAG, anti-TRK or anti-TRKB antibody (1:1000) in carbonate buffer (pH 9.8), ON at 4°C. Following blocking with 3% BSA in PBS buffer (2 h at RT), 120 ug of total protein from each sample (of lysates from HEK293T cells transfected to overexpress GFP-TRKB.wt or GFP-TRKB.Y433F) were added and incubated overnight at 4°C under agitation. […] The luminescence was determined via HRP-conjugated streptavidin (1:10000, 1h, RT) activity reaction with ECL by a plate reader. The luminescence signal from blank wells (containing all the reagents but the sample lystates, substituted by the blocking buffer) was used as background. The specific signal was then calculated by subtracting the values of blank wells from the values of the samples with matched concentration of the biotinylated ligand. For Figure 2E, the precipitated TRKB.wt or Y433F was incubated with tritiated imipramine (0-30μM) and the radioactive emission of the ligand was determined by scintillation (OptiPhase Supermix cocktail: #1200-439; MicroBeta2, Perkin-Elmer). The scintillation signal from blank wells was used as background, and the specific signal was then calculated by subtracting the values of blank wells from the values of the samples with matched concentration of the radioactive ligand.

In test [1] the test system is mice. Nature of the test: Ocular dominance plasticity (monocular deprivation, intrinsic signal imaging). Format: in vivo, mouse. The procedure: The “transparent skull” preparation was executed as described in literature ([Steinzeig et al., 2017]). Briefly, adult female mice (20-22 weeks old) were anesthetized via i.p. injection with a mixture containing: 0.05 mg/kg fentanyl (Hameln, Germany); 5 mg/kg midazolam (Hameln, Germany); 0.5 mg/kg medetomidine (Orion Pharma, Finland); diluted in saline (B Braun, Germany). The animals’ eyes were covered with protective-gel (Alcon, UK). The animal’s head was shaved and disinfected with ethanol and Betadine. The mouse head was then fixed on the stereotaxic frame and the temperature was maintained at 37°C. A mixture of lidocaine and adrenaline (Orion Pharma, Finland) was applied locally on the head and the skin was cut with spring scissors. The incision area was restricted 2 mm above the bregma and caudal edge of intraparietal bone. The scalp was removed and a focused air stream and a cotton swab were used to clean and stop bleeding. The periosteum was gently scratched away from the skull with an eye scalpel and the temporal muscles were pushed aside, in order to expose enough space around the area of interest to attach the metal holder. When the skull was smooth, white and dry, fat was removed from the skull rapidly by passing on it a cotton swab soaked in acetone and the air current was used to avoid its penetration into the bone. Then, with a metal stick, a thin layer of cyanoacrylate glue (Loctite 401, Henkel, Germany) was applied to the surface of the skull, in order to make the skull transparent. After waiting 10 minutes for the glue to dry, a first layer of acryl was applied on the skull surface with a brush. Acryl was used to prolong the life of the transparency and was prepared by stirring acrylic powder (EUBECOS, Germany) with methacrylate liquid (Densply, Germany) until a nail-polish consistency was reached. After 30 minutes, a second layer of acryl was applied and was left to dry overnight. Finally, the animals were injected s.c. with 5 mg/kg Carprofen (ScanVet, Nord Ireland) for postoperative analgesia and i.p. with a wake-up composed by: 1.2 mg/kg Naloxone (Orpha-Devel Handels und Vertriebs GmbH, Austria), opioid receptor antagonist; 0.5 mg/kg Flumazenil (Hameln, Germany), GABA-A receptor antagonist; 2.5 mg/kg Atipamezole (Vet Medic animal Health Oy, Finland), adrenergic receptor antagonist; diluted in saline (B Braun, Germany). The next day, isoflurane at 4% was used for a couple of minutes to induce the anesthesia and then it was reduced at 2% for the procedure. The acryl layer was polished only on the area of interest, using a hand drill with a polishing bit. […]
Optical imaging. The saturation of haemoglobin in the primary visual cortex of the right hemisphere was measured to assess cortical activity ([Cang et al., 2005]; [Kalatsky and Stryker, 2003]). […]

In test [2] the test system is GluR1 subunit of AMPA receptors. Nature of the test: Surface GluR1 ELISA in rat cortical cells. The format is cell-based. The procedure: (§2) Briefly, the MG87.TRKB cells or primary cortical cells from rat or mouse embryos, cultivated in clear bottom 96-well plates (ViewPlate 96, Perkin Elmer), were washed with ice-cold PBS and fixed with 100μl of 4% PFA per well. […] Following washing, the samples were incubated with HRP-conjugated anti-goat or anti-rabbit IgG (1:5000 in blocking buffer) for 1h at RT. The cells were washed 4x with 200μl of PBS for 10 min each. Finally, the chemiluminescent signal generated by reaction with ECL was analyzed in a plate reader.

The next test has as its system NMDA receptors. Further details: method as in Zanos et al., 2016, 2018. The conditions noted are these: ref Zanos et al., 2016, 2018; cited from earlier work.
The target in test [3] is T2, TRKB (Mus musculus, UniProt P15209). Put plainly: Cell-free ligand binding assay on immobilised TRKB from HEK293T lysates. On the set-up: wild-type GFP-tagged full length TRKB or the GFP-tagged Y433F TRKB mutant; host or cells: HEK293T. The conditions noted are these: biotinylated R,R-HNK (Figure 2E).
T2 sequence (P15209 32-821): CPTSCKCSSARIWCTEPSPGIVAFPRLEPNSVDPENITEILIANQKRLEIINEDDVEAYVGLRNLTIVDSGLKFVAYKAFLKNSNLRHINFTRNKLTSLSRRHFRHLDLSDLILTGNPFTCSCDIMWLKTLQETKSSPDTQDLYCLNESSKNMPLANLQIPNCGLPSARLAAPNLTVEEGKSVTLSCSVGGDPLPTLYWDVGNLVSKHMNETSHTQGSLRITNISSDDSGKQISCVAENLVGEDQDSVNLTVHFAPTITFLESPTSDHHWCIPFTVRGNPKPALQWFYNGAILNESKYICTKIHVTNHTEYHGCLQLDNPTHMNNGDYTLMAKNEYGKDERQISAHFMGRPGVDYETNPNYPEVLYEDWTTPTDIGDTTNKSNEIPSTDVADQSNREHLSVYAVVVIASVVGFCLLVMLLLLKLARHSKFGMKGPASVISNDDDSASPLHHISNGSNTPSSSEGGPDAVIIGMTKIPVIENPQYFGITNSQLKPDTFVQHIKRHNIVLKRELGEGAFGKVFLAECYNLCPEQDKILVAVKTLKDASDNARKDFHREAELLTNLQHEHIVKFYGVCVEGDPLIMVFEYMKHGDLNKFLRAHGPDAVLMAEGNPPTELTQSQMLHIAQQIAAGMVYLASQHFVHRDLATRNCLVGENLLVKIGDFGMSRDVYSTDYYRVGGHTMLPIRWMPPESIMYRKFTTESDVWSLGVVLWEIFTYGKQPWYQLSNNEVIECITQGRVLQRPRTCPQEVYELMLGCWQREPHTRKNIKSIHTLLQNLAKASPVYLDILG
Test [4] has as its target T2, TRKB. The test is described as above. Further details: wild-type GFP-tagged full length TRKB or the GFP-tagged Y433F TRKB mutant; host or cells: HEK293T. The conditions noted are these: biotinylated FLX 1 μM. The protocol: as §1
Test [5] deals with mice. Nature of the test: Object location memory (OLM) test. The format is in vivo, mouse. The conditions noted are these: wild-type mice, R,R-HNK. The procedure:
Object-location memory (OLM): this test was performed in a square arena (28cm side) with opaque walls containing cues (black stripes or spots). The adult male and female mice (18-22 weeks old) were placed for 3 consecutive days (15min per session) in the arena with two identical objects (table tennis balls glued to caps of 50ml Falcon tubes) in the same position throughout the sessions (pretest).

For test [6], the system named is GluR1 subunit of AMPA receptors. Nature of the test: Surface GluR1 ELISA in cortical cells of TRKB.Y433F mice. The format is cell-based, mouse. The procedure:
as §2

T1 sequence (P15209 32-821 Y433F): as the sequence (P15209 32-821) above, with Y402F counted along it

As a reminder, the pKd is −log10 of the Kd, conventionally taken in molar units. Read a low pKd as a high Kd. By pKi is commonly meant −log10 of the Ki, conventionally taken in molar units. As to `N[C@@]1(c2ccccc2Cl)CCC[C@@H](O)C1=O` [R,R-HNK, 2R,6R-hydroxynorketamine], the “TRKB interaction with PLC-γ1” value in the test on TRKB:PLC-γ1 interaction is given as “increased TRKB interaction with PLC-γ1”. Besides, the “affinity to TRKB.Y433F compared with wild-type TRKB” value on TRKB.Y433F is reported as “much lower than to the wild-type TRKB”. Further, the “effect on shift in ocular dominance” value in the test on mice [1] (TRKB.Y433F mice) and in the test on mice [1] (wild-type mice co-treated with pravastatin) was “lost” in each case. The “shift in ocular dominance after 7-day monocular deprivation” value in the test with mice [1] (adult mice, 10 mg/kg i.p. every second day for 8 days) is recorded as “significant shift in OD”. In test [2], the “cell surface localization of GluR1 subunits of AMPA receptors” value is “increased cell surface localization of GluR1 subunits”. Also, the “affinity to NMDA receptors” value in the test with NMDA receptors is “low affinity”. At TRKB [3], this compound showed a pKd of 5.74. Further, the “displacement of biotinylated FLX from TRKB” value on TRKB [4] was “readily displaced”. Besides, on TRKB [4] (read-out: Ki for displacement of biotinylated FLX from TRKB), the pKi is 5.65. The object location memory entry with mice [5] was “improved object location memory”. For the same compound, in test [6], the “increase in surface GluR1 in neurons from TRKB.Y433F mutant mice” value was “prevented”.

Source of the values: publication PMC7938888, “Antidepressant drugs act by directly binding to TRKB neurotrophin receptors” (Cell, 2021).
